Results on 2 compounds are retold here after patent US20120129769A1, “ORALLY ADMINISTERABLE PHARMACEUTICAL PREPARATION CONTAINING INSULIN” (priority 2009, published 2012).

Data set [1] in a line: Blood sugar after oral (feeding probe) insulin with or without ε-amino-caproic acid in starved rats (Example 1). Type of data set: in vivo, Male Wistar rats. As to conditions: n=4. On the procedure:
(§1) Male Wistar rats (Charles-River Laboratories, Budapest, Hungary) were used for the experiments. Before the experiment the animals were starved for 16 hours. The experiments started between 8 and 9 h in the morning. 2×6 groups were formed in a random manner, with 4 animals by group. The animals were pretreated through a feeding probe according to the followings: group 1: with 1 g/kg of ε-amino-caproic acid; group 2: with 0.1 U/kg of insulin; group 3: with 0.1 U/kg of insulin and 1 g/kg of ε-amino-caproic acid; group 4: with 1.0 U/kg of insulin; group 5: with 1.0 U/kg of insulin and 1 g/kg of ε-amino-caproic acid; and group 6: with a solvent.

Data set [2] is described as follows: Blood sugar (glucose oxidase method) after intraduodenal insulin-acepramin mixture with standard casein (Example 2). Format: in vivo, male Wistar rats. Conditions: mean±S.D., n=8. The source says:
(§2) Data: mean±S.D. with n=8 by group. Statistics: t-test with Bonferroni correction, after ANOVA.

Data set [3] is described as follows: Plasma insulin after oral (feeding probe) insulin with or without ε-amino-caproic acid in starved rats (Example 1). Format: in vivo, Male Wistar rats. Conditions: n=4. On the procedure:
as §1

Data set [4] can be described thus: Plasma insulin immunoreactivity (radioimmunoassay) after intraduodenal insulin-acepramin mixture with standard casein (Example 2). As to conditions: mean±S.D., n=8. As to the method: Healthy male Wistar rats (230-250 g) were given an ε-amino-caproic acid—human recombinant insulin mixture with standard casein intraduodenally. The endpoint of the measurement was the blood sugar measured with the glucose oxidase method, and the plasma insulin immunoreactivity measured with radioimmunoassay 15 and 60 minutes after the administration of the insulin-acepramin formulation (aqueous suspension).
as §2

In another data set the target is α-chymotrypsin (Bos taurus, UniProt P00766). In words: In vitro stability of insulin in the presence of a protein degrading enzyme (reverse-phase HPLC). Format: in vitro ADME. As to conditions: after 120 minutes; insulin 100 μM, α-chymotrypsin 1.5 μg/10 μl; FIG. 1. As to the method: FIG. 1: Insulin (100 μM; native) stability in the presence of an equivalent quantity of insulin/ε-amino-caproic acid (acepramin, Sigma, MO) in a solution containing α-chymotrypsin (1.5 μg/10 μl).
In vitro stability means the biodegradation of a primitive formulation of the insulin-acepramin mixture in the presence of a protein degrading enzyme, as compared to native insulin (results of reverse-phase HPLC tests).

The mark [5] stands for this setting: 15-minute values, insulin 0.1 IU/kg (combination: + 1 g/kg ε-amino-caproic acid).
Setting [6] is: 15-minute values, insulin 1.0 IU/kg (combination: + 1 g/kg ε-amino-caproic acid).
The mark [7] stands for this setting: 60-minute values, insulin 0.1 IU/kg (combination: + 1 g/kg ε-amino-caproic acid).
Where [8] appears, read: 60-minute values, insulin 1.0 IU/kg (combination: + 1 g/kg ε-amino-caproic acid).

As to `NCCCCCC(=O)O` [ε-amino-caproic acid, reference compound], the Blood sugar stood at 5.43 ± 0.55 mmol/L in data set [1] (15-minute values, 1 g/kg ε-amino-caproic acid alone); 5.37 ± 0.15 mmol/L in data set [1] (60-minute values, 1 g/kg ε-amino-caproic acid alone); 6.9 ± 1.41 mmol/L in data set [2] (15th minute, 100 mg/kg ε-amino-caproic acid alone); 7.3 ± 0.95 mmol/L in data set [2] (60th minute, 100 mg/kg ε-amino-caproic acid alone).

For “insulin: biotechnologically produced human recombinant insulin, given alone (native, unformulated)”, the Blood sugar in data set [1] (setting [5]) is 5.96 ± 0.21 mmol/L; in data set [1] (setting [6]), 5.77 ± 0.22 mmol/L; in data set [1] (setting [7]) it was 4.97 ± 0.40 mmol/L; in data set [1] (setting [8]), 4.67 ± 0.41 mmol/L; in data set [2] (15th minute, insulin 0.1 IU/kg (combination: + 100 mg/kg Acepramin), standard casein), 7.9 ± 0.92 mmol/L; in data set [2] (15th minute, insulin 1.0 IU/kg (combination: + 100 mg/kg ε-amino-caproic acid), standard casein), 7.7 ± 2.31 mmol/L. Further, the Blood sugar in data set [2] (60th minute, insulin 0.1 IU/kg (combination: + 100 mg/kg ε-amino-caproic acid), standard casein) was 7.9 ± 0.83 mmol/L; in data set [2] (60th minute, insulin 1.0 IU/kg (combination: + 100 mg/kg ε-amino-caproic acid), standard casein) it was 6.9 ± 0.62 mmol/L. The Plasma insulin in data set [3] (setting [5]) is listed as 10.75 ± 2.21 μU/ml; in data set [3] (setting [6]), 38.25 ± 6.95 μU/ml; in data set [3] (setting [7]), 10.8 ± 1.68 μU/ml; in data set [3] (setting [8]), 23.87 ± 4.05 μU/ml; in data set [4] (15th minute, insulin 0.1 IU/kg (combination: + 100 mg/kg Acepramin)), 14.4 ± 1.51 μU/ml; in data set [4] (15th minute, insulin 1.0 IU/kg (combination: + 100 mg/kg ε-amino-caproic acid)) it was 27.5 ± 3.95 μU/ml. In addition, the Plasma insulin worked out at 17.3 ± 2.94 μU/ml in data set [4] (60th minute, insulin 0.1 IU/kg (combination: + 100 mg/kg ε-amino-caproic acid)) and 17.1 ± 2.06 μU/ml in data set [4] (60th minute, insulin 1.0 IU/kg (combination: + 100 mg/kg ε-amino-caproic acid)). The insulin degraded result with α-chymotrypsin is “more than 80%”.
